How the values were obtained:
HsSultan B-cell lymphoma = HsSultan B-cell lymphoma metastatic model in SCID mice; format: in vivo; conditions: for Activity: mean time to death: daily from two weeks after i.v. cell injection, vehicle 26 days
Method: (§1) Antitumor activity has been evaluated for the S(−) and the R(+)4-amino-thalidomide enantiomers as follows. For the HsS cell line, 2 million cells are injected into the tail vein of 8 week old, female, SCID mice. Treatment is initiated after two weeks and continued daily until the mice die or show hind limb paralysis. Results are expressed as mean time to death in treated versus control animals. For the Lewis lung model, 2.5×10(5) cells are injected intravenously into the tail vein of 6-8 week old, male, C57BL/6 mice and treatment is initiated on day three. The time period of treatment is usually 11-15 days in duration. After sacrifice by CO^2 asphyxiation, lungs (where tumors seed and grow) are removed, rinsed in water, patted dry, and weighed. Mean lung weights of age-matched, non-tumor bearing mice are subtracted from the weight of treated, tumor-bearing mice with results expressed as lung weight gain in treated versus control animals. Table 1 summarizes data from in vivo experiments in lung and plasma cell tumor metastatic tumor systems, comparing the antitumor activity of the three enantiomeric preparations of 4-amino thalidomide.

HS-Sultan cells = assay: XTT proliferation assay with HS-Sultan cells; format: cell-based; conditions: 72 hour treatment, FIG. 1
From the text: The Roche Cell Proliferation Kit II (XTT) is an useful assay for screening the relative efficacy of small molecules. The assay quantitatively determines cellular proliferation in response to agonists and/or antagonists of proliferation. It is based on the cleavage of the yellow tetrazolium salt (XTT) by metabolically active/viable cells to form an orange formazan dye. The formation of the soluble dye allows direct quantification using a scanning mulitwell spectrophotometer. An increase in the number of living cells (resulting from proliferation) results in a greater production of formazan dye which corresponds to an increase in the absorbance value.
When evaluating analogs of thalidomide, or the like, we have employed HS-Sultan cells in an in vitro XTT assay. […] When the treatment/labeling period is complete, the plate is read on a spectrophotometric plate reader at a wavelength of 470 nm and a 650 nm reference wavelength. For individual experiments, the average absorbance values (with background subtracted) for each treatment are plotted against the concentration. A larger absorbance value corresponds to a greater amount of proliferation. A negative control (untreated cells) is used as a point of reference; an absorbance value less than the control reflects inhibition of proliferation. […]

Lewis lung carcinoma = Lewis lung carcinoma metastatic model in C57BL/6 mice; format: in vivo; conditions: for Activity: weight gain of lung: 100 mg/kg/day, treatment from day three, vehicle 0.40 g
Method: as §1

[1] = system: VEGF induced neovascularization; assay: Corneal micropocket assay, VEGF pellet; format: in vivo, C57BL/6J mice; conditions: 50 mg/kg i.p. daily for six days, n=9 each, P<0.001, FIG. 2
Method: (§2) A corneal micropocket assay was performed as described in Kenyon, et al., A Model of Angiogenesis in the Mouse Cornea, Invest. Ophtalmol. & Vis. Sci., 37, 1625-1632 (1996), which is incorporated herein in its entirety. Pellets were used containing 80 ng of bFGF or human recombinat VEGF (R&D Systems, Minneapolis, Minn.) in C57BL/6J mice. […] Differences in VEGF induced neovascularization between S(−)-3APG and control were significant (n=9 each, P<0.001), as were differences between S(−)-3APG and thalidomide (n=9 each, P<0.01).

[2] = system: bFGF induced neovascularization; assay: Corneal micropocket assay, bFGF pellet; format: in vivo, C57BL/6J mice; conditions: 50 mg/kg i.p. daily for five days, n=9 each, P<0.0001, FIG. 2
Method: as §2

Structure (SMILES)	Activity: mean time to death (HsSultan B-cell lymphoma; 50 mg/kg/day) [days]	Activity: mean time to death (HsSultan B-cell lymphoma; 200 mg/kg/day) [days]	anti-cellular proliferation activity (XTT, treatment over control) (HS-Sultan cells)	Activity: weight gain of lung (Lewis lung carcinoma) [g]	antitumor activity compared among the enantiomeric preparations of 4-amino thalidomide (HsSultan B-cell lymphoma; summary of Table 1)	difference in VEGF induced neovascularization versus control [1]	antitumor activity compared among the enantiomeric preparations of 4-amino thalidomide (Lewis lung carcinoma; summary of Table 1)	difference in bFGF induced neovascularization versus control [2]
Nc1cccc2c1C(=O)N([C@@H]1CCC(=O)NC1=O)C2=O [R(+)-4-amino-thalidomide]	37	31	show anti-cellular proliferation activity	0.42				
Nc1cccc2c1C(=O)N(C1CCC(=O)NC1=O)C2=O (stereo not drawn) [R, S, 4-amino-thalidomide]	41	28		0.27				
Nc1cccc2c1C(=O)N([C@H]1CCC(=O)NC1=O)C2=O [S(−)-4-amino-thalidomide, S(−)-4-Amino-thalidomide]	47	47	show anti-cellular proliferation activity	0.17	most active enantiomer	significant	most active enantiomer	significant
